Legend:
MAVS [1] = assay: MAVS oligomerization in MEFs (semi-denaturing gel electrophoresis, immunoblot, densitometry); assay type: cell-based, mouse
Experimental: 5′ triphosphate double-stranded RNA (5′-ppp-dsRNA), a synthetic ligand for RIG-I, was purchased from InVivoGen and used at a concentration of 1 μg/mL. Mitochondria-targeted antioxidant MitoQ and the mitochondria-targeted superoxide generator MitoPQ, were gifts of M. Murphy (G. F. Kelso et al., (2001) The Journal of biological chemistry 276, 4588-4596). The control reagent TPP was purchased from Sigma. Reagents were added to cells at concentrations as indicated. GOx was purchased from Sigma and added to cultured cells at a final concentration of 0.1 U/mL. Iodoacetamide was from Thermo Fisher, and used at a final concentration of 100 μM.
Cultured MEFs or human PBMCs were lysed in a sample buffer containing 2% SDS and insoluble cell fragments were removed by centrifugation. Plasma samples derived from SLE patients were collected and stored at −20° C. until gel electrophoresis. BCA protein assay (Thermo Scientific) was used to determine protein concentrations in all samples were resolved with SDS-PAGE under denaturing conditions. Gels were transferred to PVDF membranes using a Trans-Blot Turbo Transfer System (BioRad).
(§1) SDD-AGE was performed according to a published protocol with minor modifications (Alberti et al., (2009) Cell 137, 146-158). In brief, mitochondria were resuspended in sample buffer (0.5×TBE, 10% glycerol, 2% SDS, and 0.0025% bromophenol blue) and loaded onto a vertical 1.5% agarose gel. After electrophoresis in the running buffer (1×TBE and 0.1% SDS) for 35 min with a constant voltage of 75 V at 4° C., proteins were transferred to PVDF membranes using a Trans-Blot Turbo Transfer System (BioRad) for immunoblotting.
PVDF membranes were blocked in 5% solution of nonfat powdered milk in Tris-buffered saline. Antibodies used were specific for MAVS and Actin (Santa Cruz); RIPK1 and TRAF2 (BD Biosciences); TANK, TRADD, RIG-I, and GAPDH (Cell Signaling); MDAS and COX4 (Abcam), Alexa 488 (Life Technologies), and IRF3 (Thermo Fisher), respectively. Immunoreactive proteins were visualized using HRP-labeled conjugates (Jackson Immuno Research) and developed using Clarity Western ECL substrate (Biorad). Chemiluminescence was detected and recorded using a Biorad Chemidoc instrument. Densitometric measurements were performed in Image Lab image acquisition and analysis software (Biorad).

MAVS [2] = assay: MAVS oligomerization in human PBMC and plasma (semi-denaturing agarose gel electrophoresis); assay type: cell-based
Experimental: MAVS-deficient and matching WT MEFs, gift of Z. J. Chen (Z. J. Chen et al. (2005) Cell 122, 669-682), were maintained in Dulbecco's modified Eagle's medium (DMEM) (Hyclone), supplemented with 10% heat-inactivated fetal calf serum (FCS) (Hyclone), 100 mM L-glutamine (Cellgro Mediatech), and 10,000 units/mL penicillin/10 mg/mL streptomycin sulfate (Life Technologies). C57BL6 or B6; 129-Mavstm1Zjc/J mice (The Jackson Laboratory, Bar Harbor, Me.) were maintained at the University of Vermont under a protocol approved by the Institutional Animal Care and Use Committee. Murine BMDCs were prepared as described by Inaba et al. (K. Inaba et al., (1992) Journal of Experimental Medicine 176, 1693-1702). In brief, cells derived from femur bone marrow were cultured at a density of 5×10^5/mL in 10-cm plates in RPMI 1640 (HyClone), supplemented with 5% heat-inactivated FCS, 100 mmol L-glutamine, 100 mmol sodium pyruvate, 10,000 units/mL penicillin/10 mg/mL streptomycin sulfate, 5×10^−5 mol 2-mercaptoethanol (Sigma, St. Louis, Mo.), and 10 μg/mL GM-CSF (Life Technologies). Human subjects were enrolled under a protocol approved by the University of Vermont Institutional Review Board. Samples from 17 SLE patients fulfilling the American College of Rheumatology diagnostic criteria were studied (E. M. Tan et al., (1982) Arthritis and Rheumatism 25, 1271-1277). 16 out of 17 patients were female, and the age of study participants was 47±3. The disease activity was assessed by the SLE disease activity index (SLEDAI) scores, ranging from 0 to 10 (C. Bombardier et al., (1992) Arthritis and Rheumatism 35, 630-640). Upon informed consent, primary human PBMCs were obtained from heparinized whole-blood samples from SLE patients. Control PBMCs were generated from age-, sex-, and ethnicity-matched healthy subjects. PBMCs were isolated using standard Ficoll gradient centrifugation as previously described (R. Mallone et al., (2011) Clin. and Exp. Immunol. 163, 33-49). Cells were either used immediately to prepare lysates for immunoblotting or cultured at a density of 5×10^5/mL in a 12-well culture plate with RPMI 1640 (HyClone), supplemented with 5% heat-inactivated FCS, 100 mmol L-glutamine, 100 mmol sodium pyruvate, and 10,000 units/mL penicillin/10 mg/mL streptomycin sulfate. Enriched monocytes from PBMCs were used to prepare hDCs using negative magnetic bead selection (Miltenyi), and were subsequently cultivated for 6 d in 10 μg/mL GM-CSF and 500 U/mL IL-4. All cells were maintained in a humidified chamber at 37° C. and 5% CO2.
as §1
PVDF membranes were blocked in 5% solution of nonfat powdered milk in Tris-buffered saline. Antibodies used were specific for MAVS and Actin (Santa Cruz); RIPK1 and TRAF2 (BD Biosciences); TANK, TRADD, RIG-I, and GAPDH (Cell Signaling); MDAS and COX4 (Abcam), Alexa 488 (Life Technologies), and IRF3 (Thermo Fisher), respectively. […] Chemiluminescence was detected and recorded using a Biorad Chemidoc instrument. […]

MEFs = assay: Mitochondrial transmembrane potential (ΔΨm) by FACS using TMRE in MEFs; assay type: cell-based, mouse
Experimental: ROS generation was measured using oxidized, green-fluorescent dihydrocalcein acetoxymethylester (DHC-AM) (Life Technologies) and flow cytometry. Single-cell suspensions of MEFs were prepared and ROS was assessed with 5 μM DHC-AM staining in culture medium for 30 minutes (A. Rohnstock et al., (2007) Toxicol in Vitro 21, 1552-1562). 25 nM of cationic cell permeant dye tetramethylrhodamine ethylester (TMRE; Life Technologies) (R. C. Scaduto, Jr. et al., (1999), Biophysical journal 76, 469-477) were used to measure ΔΨm. Additionally, MitoSox Red and MitoTracker Deep Red (Life Technologies) were used to measure mitochondrial ROS and mitochondrial mass, respectively. Flow cytometry was carried out on an LSRII (BD Biosciences), and FlowJo software (Tree Star) was used for analysis.

| Compound | decrease in MAVS oligomers (MAVS [1]; MEFs pre-treated with 100 μM MitoQ, then GOx, oligomer/monomer ratio by densitometry (FIG. 3B)) [%] | decrease in MAVS oligomerization (MAVS [1]; MEFs pre-treated with 100 μM MitoQ, then SINV infection, densitometry (FIG. 3B)) [%] | MAVS oligomerization after pretreatment (MAVS [1]; MEFs pretreated (100 μM) before GOx or SINV (FIG. 3A)) | GOx-induced MAVS oligomerization in PBMCs after pretreatment (MAVS [2]; healthy-donor PBMCs pretreated with MitoQ or grown in presence of β-Me, then GOx (FIG. 4A)) | mitochondrial hyperpolarization (ΔΨm) with MitoQ (MEFs; MEF, GOx+/−MitoQ and SINV+/−MitoQ, TMRE (FIG. 3C)) | induction of MAVS oligomerization without viral infection (MAVS [1]; MEFs, substance alone (MitoPQ 1 to 10 nM, FIG. 2H; GOx, FIG. 2A)) | induction of MAVS oligomerization in PBMCs (MAVS [2]; healthy-donor PBMCs treated with GOx (FIG. 4A)) | ΔΨm induced by the substance (MEFs; MAVS-WT MEFs, not observed in MAVS-KO (FIG. 1B, 2D)) |
| --- | --- | --- | --- | --- | --- | --- | --- | --- |
| COC1=C(OC)C(=O)C(CCCCCCCCCC[P+](c2ccccc2)(c2ccccc2)c2ccccc2)=C(C)C1=O.CS(=O)(=O)[O-] [MitoQ, [10-(4,5-Dimethoxy-2-methyl-3,6-dioxo-1,4-cyclohexadien-1-yl)decyl](triphenyl)phosphonium methanesulfonate] | ≥ 80 | ~40 | reduced MAVS oligomerization | MAVS oligomerization did not occur | decreased mitochondrial hyperpolarization | – | – | – |
| glucose oxidase [GOx] | – | – | – | – | – | sufficient to induce MAVS oligomerization | induced pronounced MAVS oligomerization | increased ΔΨm |
